According to patent US11236046B2, “Substituted heterocyclic sulfonamide compounds useful as TRPA1 modulators” (Genentech, Inc., priority 2013, dated 2022):

Target: human TRPA1 (Homo sapiens (Human), UniProt O75762)
Assay: FLIPR Tetra calcium influx assay, block of cinnamaldehyde-induced calcium influx in CHO cells expressing TRPA1 (human)
Format: cell-based
Details: 20 min compound incubation, 75 uM cinnamaldehyde (~EC80), Hill coefficient fixed to 1.5, read-out: hTRPA1 AUC IC50
Description: IC50 Determinations of Exemplified Compounds.
IC50s (effective concentration) of compounds on the human and rat TRPA1 channels were determined using a FLIPR Tetra instrument. CHO cells expressing TRPA1 were plated into 384-well plates, incubated overnight at 37C, and loaded with BD calcium indicator dye for 1 hr at 37° C. followed by 15 minutes. at room temperature. The assay buffer was Hank's Balanced Salt Solution (HBSS) containing 20 mM HEPES (pH readjusted to 7.4) along with 0.02% BSA.
Following dye load and plate cool down, compounds were added to the cells using FLIPR Tetra. Plates were then incubated with compounds for 20 minutes at room temperature prior to adding agonist. Following this incubation, ˜EC80 concentration of cinnamaldehyde (75 uM for human TRPA1 and 45 uM for rat TRPA1) was added to active the channels and block of cinnamaldehyde induced calcium influx was measured.
Fixing the Hill coefficient will generally reduce variability of the IC50 determination. The IC50s were individually examined to make sure the MIN and MAX points were set correctly prior to validation of the results.

Sequence of human TRPA1 (O75762 whole entry): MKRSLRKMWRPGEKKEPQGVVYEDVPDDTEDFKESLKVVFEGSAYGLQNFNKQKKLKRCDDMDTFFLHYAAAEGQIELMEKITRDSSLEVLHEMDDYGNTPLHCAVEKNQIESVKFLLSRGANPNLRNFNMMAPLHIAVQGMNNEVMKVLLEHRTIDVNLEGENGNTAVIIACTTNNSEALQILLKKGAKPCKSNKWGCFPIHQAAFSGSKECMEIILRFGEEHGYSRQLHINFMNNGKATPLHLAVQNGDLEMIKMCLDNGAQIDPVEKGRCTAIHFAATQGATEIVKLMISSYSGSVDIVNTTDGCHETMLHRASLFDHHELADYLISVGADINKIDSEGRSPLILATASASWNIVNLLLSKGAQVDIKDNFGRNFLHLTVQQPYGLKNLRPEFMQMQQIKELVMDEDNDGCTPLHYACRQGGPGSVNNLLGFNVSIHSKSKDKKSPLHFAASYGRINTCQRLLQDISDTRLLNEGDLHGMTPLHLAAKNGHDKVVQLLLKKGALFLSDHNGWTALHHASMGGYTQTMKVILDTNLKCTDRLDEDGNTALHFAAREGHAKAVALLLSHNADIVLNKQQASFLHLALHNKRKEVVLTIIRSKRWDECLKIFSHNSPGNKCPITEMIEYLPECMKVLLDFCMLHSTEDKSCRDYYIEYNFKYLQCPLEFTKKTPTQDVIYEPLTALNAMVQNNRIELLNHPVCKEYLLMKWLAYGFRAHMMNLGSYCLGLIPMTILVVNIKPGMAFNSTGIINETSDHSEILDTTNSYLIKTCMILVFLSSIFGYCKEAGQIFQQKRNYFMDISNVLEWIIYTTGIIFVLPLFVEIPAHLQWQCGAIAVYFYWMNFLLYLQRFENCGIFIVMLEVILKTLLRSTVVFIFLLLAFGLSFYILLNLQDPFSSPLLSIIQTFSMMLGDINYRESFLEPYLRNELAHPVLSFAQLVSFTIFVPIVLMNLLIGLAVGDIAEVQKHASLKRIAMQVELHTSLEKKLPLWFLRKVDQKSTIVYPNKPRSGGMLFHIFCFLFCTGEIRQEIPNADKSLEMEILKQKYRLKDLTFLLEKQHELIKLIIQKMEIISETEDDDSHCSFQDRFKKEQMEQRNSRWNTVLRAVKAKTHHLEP

For `N#Cc1cnc(-c2ccc(C(F)(F)F)nc2)cc1CNC(=O)[C@@H]1C[C@@H](F)CN1S(=O)(=O)c1ccc(F)cc1` [Example 79, (2S,4R)—N-([5-cyano-2-[6-(trifluoromethyl)pyridin-3-yl]pyridin-4-yl]methyl)-4-fluoro-1-[(4-fluorobenzene)sulfonyl]pyrrolidine-2-carboxamide], the IC50 was 9 nM.
`C[C@@]1(F)C[C@@H](C(=O)NCc2cc(F)cc(-c3cnc(C(F)(F)F)nc3)c2)N(S(=O)(=O)c2ccc(F)cc2)C1` [Example 52, (2S,4R)-4-fluoro-N-(3-fluoro-5-(2-(trifluoromethyl)pyrimidin-5-yl)benzyl)-1-((4-fluorophenyl)sulfonyl)-4-methylpyrrolidine-2-carboxamide] gave an IC50 of 16 nM.
`COc1nc(C(F)(F)F)ccc1-c1cc(F)cc(CNC(=O)[C@@H]2C[C@@H](F)CN2S(=O)(=O)c2ccc(F)cc2)c1` [Example 44, (2S,4R)-4-fluoro-N-([3-fluoro-5-[2-methoxy-6-(trifluoromethyl)pyridin-3-yl]phenyl]methyl)-1-[(4-fluorobenzene)sulfonyl]pyrrolidine-2-carboxamide] was tested, and the IC50 was 48 nM.
In the case of `O=C(NCc1cc(Cl)nc(-c2ccc(C(F)F)nc2)c1)[C@@H]1C[C@@H](F)CN1S(=O)(=O)c1ccc(F)cc1` [Example 60, (2S,4R)—N-[[2-chloro-6-[6-(difluoromethyl)-3-pyridyl]-4-pyridyl]methyl]-4-fluoro-1-(4-fluorophenyl)sulfonyl-pyrrolidine-2-carboxamide], the IC50 is reported as 55 nM.
With `O=C(NCc1cc(-c2ccc(C(F)(F)F)cn2)ccn1)[C@@H]1[C@@H](F)CCN1S(=O)(=O)c1ccc(F)cc1` [Example 72, (2R,3S)-3-fluoro-1-(4-fluorophenyl)sulfonyl-N-[[4-[5-(trifluoromethyl)-2-pyridyl]-2-pyridyl]methyl]pyrrolidine-2-carboxamide] the IC50 was 7 nM.
`Cc1cc(-c2cnc(C(F)(F)F)nc2)cc(CNC(=O)[C@@H]2[C@@H](F)CCN2S(=O)(=O)c2ccc(F)cc2)n1` [Example 191, (2R,3S)-3-fluoro-1-[(4-fluorobenzene)sulfonyl]-N-([6-methyl-4-[2-(trifluoromethyl)pyrimidin-5-yl]pyridin-2-yl]methyl)pyrrolidine-2-carboxamide] was tested, and the IC50 was 27 nM.
In the case of `COc1cc(-c2ccc(C(F)(F)F)nc2)cc(CNC(=O)[C@@H]2C[C@@H](F)CN2S(=O)(=O)c2ccc(F)cc2)n1` [Example 118, (2S,4R)-4-fluoro-1-[(4-fluorobenzene)sulfonyl]-N-([6-methoxy-4-[6-(trifluoromethyl)pyridin-3-yl]pyridin-2-yl]methyl)pyrrolidine-2-carboxamide], the IC50 is reported as 37 nM.
Molecule `O=C(NCc1cc(-c2cnc(C(F)(F)F)nc2)ccn1)[C@@H]1C[C@@H](F)CN1S(=O)(=O)c1ccc(F)cc1` [Example 53, (2S,4R)-4-fluoro-1-(4-fluorophenyl)sulfonyl-N-[[4-[2-(trifluoromethyl)pyrimidin-5-yl]-2-pyridyl]methyl]pyrrolidine-2-carboxamide] has an IC50 of 411 nM.
`O=C(NCc1cc(-c2ccc(SC(F)(F)F)cc2)ncn1)[C@@H]1C[C@@H](F)CN1S(=O)(=O)c1ccc(F)cc1` [Example 147, (2S,4R)-4-fluoro-1-(4-fluorophenylsulfonyl)-N-((6-(4-(trifluoromethylthio)phenyl)pyrimidin-4-yl)methyl)pyrrolidine-2-carboxamide] gave an IC50 of 49 nM.
`O=C(NCc1cc(F)cc(-c2cnc(C(F)F)cn2)c1)[C@@H]1C[C@@H](F)CN1S(=O)(=O)c1ccc(F)cc1` [Example 90, (2S,4R)—N-[[3-[5-(difluoromethyl)pyrazin-2-yl]-5-fluoro-phenyl]methyl]-4-fluoro-1-(4-fluorophenyl)sulfonyl-pyrrolidine-2-carboxamide] was tested, and the IC50 was 62 nM.
`COc1cc(CNC(=O)[C@@H]2C[C@@H](F)CN2S(=O)(=O)c2ccc(F)cc2)cc(-c2cnc(C(F)(F)F)nc2)n1` [Example 188, (2S,4R)-4-fluoro-1-(4-fluorophenyl)sulfonyl-N-[[2-methoxy-6-[2-(trifluoromethyl)pyrimidin-5-yl]-4-pyridyl]methyl]pyrrolidine-2-carboxamide] gave an IC50 of 8 nM.
“(2S,4R)-4-fluoro-1-(4-fluorophenyl)sulfonyl-N-[[3-fluoro-5-[2-(trifluoromethyl)thiazol-5-yl]phenyl]methyl]pyrrolidine-2-carboxamide [Example 174]” was tested, and the IC50 was 12 nM.
`O=C(NCc1cc(F)cc(-n2ccc(C(F)(F)F)cc2=O)c1)[C@@H]1C[C@@H](F)CN1S(=O)(=O)c1ccc(F)cc1` [Example 85, (2S,4R)-4-fluoro-N-[[3-fluoro-5-[2-oxo-4-(trifluoromethyl)-1-pyridyl]phenyl]methyl]-1-(4-fluorophenyl)sulfonyl-pyrrolidine-2-carboxamide] gave an IC50 of 771 nM.
Molecule `O=C(NCc1cc(-c2ccc(C(F)(F)F)nc2)ncn1)[C@@H]1CC2(CC2)CN1S(=O)(=O)c1ccc(F)cc1` [Example 80] has an IC50 of 44 nM.
Work on `CC1(C)CC[C@@H](C(=O)NCc2cc(-c3ccc(C(F)(F)F)nc3)ncn2)N1S(=O)(=O)c1ccc(F)cc1` [Example 194, (2S)-1-(4-fluorophenyl)sulfonyl-5,5-dimethyl-N-[[6-[6-(trifluoromethyl)-3-pyridyl]pyrimidin-4-yl]methyl]pyrrolidine-2-carboxamide] yielded an IC50 of 381 nM.
`O=C(NCc1cc(Cl)nc(-c2ccc(OC(F)F)cc2)c1)[C@@H]1C[C@@H](F)CN1S(=O)(=O)c1ccc(F)cc1` [Example 165, (2S,4R)—N-((2-chloro-6-(4-(difluoromethoxy)phenyl)pyridin-4-yl)methyl)-4-fluoro-1-((4-fluorophenyl)sulfonyl)pyrrolidine-2-carboxamide] gave an IC50 of 66 nM.
For `O=C(NCc1cc(F)cc(-c2cnc(C(F)(F)F)cn2)c1)[C@@H]1C[C@@H](F)CN1S(=O)(=O)c1ccc(F)cc1` [Example 122, (2S,4R)-4-fluoro-1-(4-fluorophenyl)sulfonyl-N-[[3-fluoro-5-[5-(trifluoromethyl)pyrazin-2-yl]phenyl]methyl]pyrrolidine-2-carboxamide], the IC50 was 14 nM.
Molecule `O=C(NCc1cn(-c2ccc(C(F)(F)F)nc2)nc1C1CC1)[C@@H]1C[C@@H](F)CN1S(=O)(=O)c1ccc(F)cc1` [Example 151, (2S,4R)—N-([3-cyclopropyl-1-[6-(trifluoromethyl)pyridin-3-yl]-1H-pyrazol-4-yl]methyl)-4-fluoro-1-[(4-fluorobenzene)sulfonyl]pyrrolidine-2-carboxamide] has an IC50 of 161 nM.
`O=C(NCc1cc(-c2ccc(C(F)(F)F)nc2)nc(-c2ccc(C(F)(F)F)nc2)c1)[C@@H]1C[C@@H](F)CN1S(=O)(=O)c1ccc(F)cc1` [Example 83, (2S,4R)—N-[[2,6-bis[6-(trifluoromethyl)-3-pyridyl]-4-pyridyl]methyl]-4-fluoro-1-(4-fluorophenyl)sulfonyl-pyrrolidine-2-carboxamide] showed an IC50 of 54.6 nM.
`O=C(NCc1cc(-c2ccc(C(F)(F)F)cc2)ncn1)[C@@H]1C[C@H]2COC[C@H]2N1S(=O)(=O)c1ccc(F)cc1` (single isomer, unassigned) [Example 99] was tested, and the IC50 was 428 nM.
Molecule `O=C(NCc1cc(F)cc(C2CCC(C(F)(F)F)CN2)c1)[C@@H]1C[C@@H](F)CN1S(=O)(=O)c1ccc(F)cc1` (stereo partly drawn) [Example 74, (2S,4R)-4-fluoro-1-(4-fluorophenyl)sulfonyl-N-[[3-fluoro-5-[5-(trifluoromethyl)-2-piperidyl]phenyl]methyl]pyrrolidine-2-carboxamide] has an IC50 of 192 nM.
`Cc1cc(CNC(=O)[C@@H]2C[C@@H](F)CN2S(=O)(=O)c2ccc(F)cc2)cc(-c2cnc(C(F)(F)F)nc2)n1` [Example 43, (2S,4R)-4-fluoro-1-(4-fluorophenyl)sulfonyl-N-[[2-methyl-6-[2-(trifluoromethyl)pyrimidin-5-yl]-4-pyridyl]methyl]pyrrolidine-2-carboxamide] gave an IC50 of 47 nM.
For `N#Cc1nn(-c2ccc(C(F)(F)F)cc2)cc1CNC(=O)[C@@H]1C[C@@H](F)CN1S(=O)(=O)c1ccc(F)cc1` [Example 50, (2S,4R)—N-([3-cyano-1-[4-(trifluoromethyl)phenyl]-1H-pyrazol-4-yl]methyl)-4-fluoro-1-[(4-fluorobenzene)sulfonyl]pyrrolidine-2-carboxamide], the IC50 was 60 nM.
In the case of `O=C(NCc1cc(-c2ccc(OC(F)(F)F)cc2)ncn1)[C@@H]1[C@@H](F)CCN1S(=O)(=O)c1ccc(F)cc1` [Example 111, (2R,3S)-3-fluoro-1-(4-fluorophenyl)sulfonyl-N-[[6-[4-(trifluoromethoxy)phenyl]pyrimidin-4-yl]methyl]pyrrolidine-2-carboxamide], the IC50 is reported as 7 nM.
In the case of `O=C(NCc1cc(-c2cnc(C(F)(F)F)nc2)nc(-c2cnc(C(F)(F)F)nc2)c1)[C@@H]1C[C@@H](F)CN1S(=O)(=O)c1ccc(F)cc1` [Example 61, (2S,4R)—N-[[2,6-bis[2-(trifluoromethyl)pyrimidin-5-yl]-4-pyridyl]methyl]-4-fluoro-1-(4-fluorophenyl)sulfonyl-pyrrolidine-2-carboxamide], the IC50 is reported as 71 nM.
`O=C(NCc1cc(-c2ccc(C(F)(F)F)nc2)ncn1)[C@@H]1C[C@@H](F)CN1S(=O)(=O)c1ccc(F)c(F)c1` [Example 156, (2S,4R)-1-(3,4-difluorophenylsulfonyl)-4-fluoro-N-((6-(6-(trifluoromethyl)pyridin-3-yl)pyrimidin-4-yl)methyl)pyrrolidine-2-carboxamide] gave an IC50 of 109 nM.
With `C[C@@H]1[C@@H](C(=O)NCc2cc(-c3ccc(C(F)(F)F)nc3)ncn2)N(S(=O)(=O)c2ccc(F)cc2)C[C@@H]1F` (single isomer, unassigned) [Example 106] the IC50 was 280 nM.
